What was measured:
TTK = biological target: T1, TTK (Homo sapiens, UniProt P33981); test: Eurofins kinase selectivity profile, TTK; type: biochemical
T1 construct: purchased Eurofins (Celle Lévescault)
T1 sequence (P33981 1-857): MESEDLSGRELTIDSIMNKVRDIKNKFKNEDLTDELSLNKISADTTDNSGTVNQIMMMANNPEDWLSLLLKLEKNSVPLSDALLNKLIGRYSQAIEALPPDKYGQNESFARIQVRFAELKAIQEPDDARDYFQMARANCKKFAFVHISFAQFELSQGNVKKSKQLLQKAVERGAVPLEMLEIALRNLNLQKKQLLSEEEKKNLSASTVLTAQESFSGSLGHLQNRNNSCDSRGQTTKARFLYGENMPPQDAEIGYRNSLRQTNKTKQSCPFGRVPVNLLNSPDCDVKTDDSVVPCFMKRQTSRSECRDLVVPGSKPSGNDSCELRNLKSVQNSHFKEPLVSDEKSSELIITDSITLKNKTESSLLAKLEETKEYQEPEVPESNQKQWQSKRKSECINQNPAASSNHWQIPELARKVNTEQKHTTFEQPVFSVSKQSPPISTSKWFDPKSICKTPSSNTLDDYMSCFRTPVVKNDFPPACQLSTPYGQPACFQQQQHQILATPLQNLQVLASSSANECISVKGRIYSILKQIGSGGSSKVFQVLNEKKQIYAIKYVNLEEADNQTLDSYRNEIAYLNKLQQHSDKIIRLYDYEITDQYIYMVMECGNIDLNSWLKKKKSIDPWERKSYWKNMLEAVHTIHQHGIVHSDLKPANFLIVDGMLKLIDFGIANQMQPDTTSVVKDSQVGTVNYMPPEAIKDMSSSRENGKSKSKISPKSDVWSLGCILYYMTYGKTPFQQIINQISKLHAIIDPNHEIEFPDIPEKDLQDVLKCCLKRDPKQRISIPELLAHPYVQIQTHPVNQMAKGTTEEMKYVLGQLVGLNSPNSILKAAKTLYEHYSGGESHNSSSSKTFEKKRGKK
Description: Subsequently, to ascertain whether the high potency of compound 11 was specific for MK2, an additional 380 human recombinant protein kinases were screened.
To assess the impact of various compounds on MK2 kinase activity, we utilized the ADP‐Glo Assay Kit (Promega) following the manufacturer's instructions. Luminescence measurements were taken using a SpectraMax Paradigm reader. The inhibition percentage was calculated using the following formula: ((specific signalDMSO control − specific signal inhibitor)/(specific signalDMSO control)) × 100%. The IC50 values were determined employing dose–response curve fitting via Prism (Graph Pad). Additionally, Eurofins company (Celle Lévescault) conducted the analysis on compound 11’s inhibitory activity against 380 other human recombinant kinases at various concentrations.

[1] = test system: IL-6 and TNF-α secretion by RAW264.7 cells; test: Cytokine production by ELISA in LPS-stimulated RAW264.7; type: cell-based, mouse; conditions: LPS-stimulated RAW264.7, 24 h
Description: FIGURE 4 Targeting cellular MK2 signaling with irreversible inhibition by compound 11. (A and B) RT‐PCR analysis of IL‐1β, TNF‐α, and IL‐6 expression in Lipopolysaccharides (LPS)‐stimulated THP‐1 (A) and RAW264.7 (B) Cells, with pre‐treatment of compound 11 for 3 h followed by LPS (3 h) stimulation. (C) The inhibitory effects of compound 11 on TNF‐α and IL‐6 production in LPS‐stimulated RAW264.7 macrophages for 24 h, measured by ELISA. (D and E) Compound 11, alongside CC‐99677 and PF‐3644022, suppressed MK2 pathway activation, validated through western blot analysis post‐LPS stimulation. Cells were preincubated with the specified compounds for 1 h prior to LPS stimulation (100 ng/mL, 30 min). (F) Distinguishes the mode of action between compound 11 and CC‐99677. The complex structure of a small molecule and MK2 (3R2Y) with the same parent nucleus as compound 11 is shown in cyans, and the complex structure of a small molecule and MK2 (3FYJ) with the same parent nucleus as CC‐99677 is shown in orange. (G–I) The effect of indicated inhibitor on Hsp27 phosphorylation following inhibitor washout. […]
Following collection and centrifugation of the cell culture media, supernatants were harvested and the levels of cytokine secretion were evaluated using specific ELISA kits (absin), following the manufacturer's protocol.

[2] = test system: CD206 expression in RAW264.7 cells; test: Flow cytometry of CD206 in IL-4/IL-13 stimulated RAW264.7; type: cell-based, mouse; conditions: RAW264.7, IL-4/IL-13, 48 h
From the text: A previous study has reported that MK2 fostered M2‐like polarization of TAMs, driving a protumor and proangiogenic phenotype which in turn accelerates tumor progression.[21] We thus assessed the influence of compound 11 on macrophage polarization and function. Our experiments used human THP‐1 monocyte induced macrophages, mouse RAW264.7 macrophages, and mouse bone marrow‐derived macrophages (BMDM). These cells were induced into M2‐like macrophages using the classic IL‐4 and IL‐13 stimuli.
In the in vitro analysis, cells were harvested, stained with surface antibodies, and subsequently fixed and permeabilized using IC Buffer following manufacturer's guidelines. Antibodies targeting intracellular molecules were used for further staining as cells were incubated for an additional 30 min at 4°C. These cells were then filtered using a 300‐mesh cell sieve prior to analysis via CytoFLEX (Beckman Coulter Life Sciences).
Figure S3 Inhibition of pro-tumorigenic M2-like polarization in macrophages by compound 11. (A) Illustrates the treatment effects on various macrophage cells using Western blot analysis post IL-4/IL-13 exposure (30 minutes or the specified time period). (B) Examines CD206 expression in RAW264.7 cells via flow cytometry post 48hours treatment of compound 11 and IL-4/IL-13. […] IL-4/IL-13 (20 ng/mL) served as the stimulation control, while untreated cells were the baseline control. […]

**Q.** With `C=CC(=O)Nc1cc(-c2cc(-c3cc4c([nH]3)CCNC4=O)ccn2)ccc1OC(F)(F)F` [compound 11] as the molecule, how does the IC50 (TTK) read?
**A.** The IC50 was > 1000 nM.

**Q.** What about the inhibition at 0.01 µM (TTK; TTK(h), 10 nM, read-out: Inhibition rate) of the same molecule?
**A.** Its inhibition at 0.01 µM is -1%.

**Q.** And the inhibition at 0.1 µM (TTK; TTK(h), 100 nM, read-out: Inhibition rate)?
**A.** The inhibition at 0.1 µM was 7%.

**Q.** What about the inhibition at 1 µM (TTK; TTK(h), 1000 nM, read-out: Inhibition rate) of the same molecule?
**A.** Its inhibition at 1 µM is 43%.

**Q.** What about the “effect on secretion level of IL-6 and TNF-α” value [1] of the same molecule?
**A.** The value was “similarly reduced”.

**Q.** And the “effect on CD206 expression” value [2]?
**A.** Its value is “A similar result”.

From PMC11233931, “Remodeling tumor‐associated macrophage for anti‐cancer effects by rational design of irreversible inhibition of mitogen‐activated protein kinase‐activated protein kinase 2” (MedComm, 2024)
